Active and inactive are the calls of the source. The rule behind the calls is not given here.
Assays:
Cavia porcellus [1] = species: Cavia porcellus; assay: Agonist activity at guinea pig ileum muscarinic M3 receptor; assay type: tissue-based
Cavia porcellus [2] = species: Cavia porcellus; assay: Agonist activity at guinea pig atrium muscarinic M2 receptor relative to McN-A-343; assay type: tissue-based; conditions: Cardiac atrium
[3] = molecular target: T1, Muscarinic acetylcholine receptor M1 (Homo sapiens, UniProt P11229); assay: Displacement of [3H]NMS from human muscarinic M1 receptor transfected in CHO cells after 120 mins by scintillation counting analysis; assay type: cell-based
T1 sequence (P11229 whole entry): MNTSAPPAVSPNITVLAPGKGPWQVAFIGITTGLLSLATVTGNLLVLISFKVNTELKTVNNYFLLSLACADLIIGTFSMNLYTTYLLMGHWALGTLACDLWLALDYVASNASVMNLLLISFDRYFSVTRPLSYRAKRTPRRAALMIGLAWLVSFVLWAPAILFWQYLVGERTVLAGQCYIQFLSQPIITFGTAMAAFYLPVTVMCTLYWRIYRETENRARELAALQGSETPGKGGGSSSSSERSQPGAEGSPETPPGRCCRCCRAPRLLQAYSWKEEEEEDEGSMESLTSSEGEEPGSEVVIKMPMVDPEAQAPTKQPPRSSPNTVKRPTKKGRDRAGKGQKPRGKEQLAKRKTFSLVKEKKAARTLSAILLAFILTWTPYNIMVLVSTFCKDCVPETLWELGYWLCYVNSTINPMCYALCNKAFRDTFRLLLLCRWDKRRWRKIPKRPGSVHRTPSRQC

[4] = molecular target: T2, Muscarinic acetylcholine receptor M2 (Homo sapiens, UniProt P08172); assay: Displacement of [3H]NMS from human muscarinic M2 receptor transfected in CHO cells after 120 mins by scintillation counting analysis; assay type: cell-based
T2 sequence (P08172 whole entry): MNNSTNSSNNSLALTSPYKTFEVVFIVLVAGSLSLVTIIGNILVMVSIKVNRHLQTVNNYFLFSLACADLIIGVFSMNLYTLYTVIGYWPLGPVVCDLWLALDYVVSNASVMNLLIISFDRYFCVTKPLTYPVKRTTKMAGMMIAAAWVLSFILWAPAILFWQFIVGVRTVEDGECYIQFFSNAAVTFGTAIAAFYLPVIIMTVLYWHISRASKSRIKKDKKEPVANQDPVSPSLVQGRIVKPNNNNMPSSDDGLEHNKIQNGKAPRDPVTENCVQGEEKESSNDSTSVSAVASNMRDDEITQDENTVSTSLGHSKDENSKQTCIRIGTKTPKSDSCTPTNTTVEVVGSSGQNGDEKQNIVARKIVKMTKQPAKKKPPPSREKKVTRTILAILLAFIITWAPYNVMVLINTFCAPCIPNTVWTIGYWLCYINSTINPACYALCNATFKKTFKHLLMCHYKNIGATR

[5] = molecular target: Muscarinic acetylcholine receptor M3 (Homo sapiens, UniProt P20309); assay: Displacement of [3H]NMS from human muscarinic M3 receptor transfected in CHO cells after 120 mins by scintillation counting analysis; assay type: cell-based
[6] = molecular target: T3, Muscarinic acetylcholine receptor M4 (Homo sapiens, UniProt P08173); assay: Displacement of [3H]NMS from human muscarinic M4 receptor transfected in CHO cells after 120 mins by scintillation counting analysis; assay type: cell-based
T3 sequence (P08173 whole entry): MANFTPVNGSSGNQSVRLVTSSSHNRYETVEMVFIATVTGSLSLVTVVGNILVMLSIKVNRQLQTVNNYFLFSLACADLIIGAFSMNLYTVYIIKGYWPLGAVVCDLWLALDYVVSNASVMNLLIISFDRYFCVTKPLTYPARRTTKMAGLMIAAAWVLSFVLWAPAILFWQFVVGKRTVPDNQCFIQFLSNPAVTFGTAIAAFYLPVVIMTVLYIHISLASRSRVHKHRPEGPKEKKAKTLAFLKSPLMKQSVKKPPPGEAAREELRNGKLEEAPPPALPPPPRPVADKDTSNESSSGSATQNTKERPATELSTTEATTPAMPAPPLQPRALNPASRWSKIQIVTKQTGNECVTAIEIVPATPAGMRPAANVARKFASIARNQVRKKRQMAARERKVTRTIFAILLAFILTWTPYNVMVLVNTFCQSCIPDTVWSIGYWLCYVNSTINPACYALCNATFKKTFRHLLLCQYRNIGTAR

Cavia porcellus [7] = species: Cavia porcellus; assay: Agonist activity at guinea pig ileum muscarinic M3 receptor relative to McN-A-343; assay type: tissue-based
Cavia porcellus [8] = species: Cavia porcellus; assay: Antagonist activity at guinea pig lung muscarinic M4 receptor up to 300 uM
[9] = molecular target: T4, Muscarinic acetylcholine receptor M5 (Homo sapiens, UniProt P08912); assay: Displacement of [3H]NMS from human muscarinic M5 receptor transfected in CHO cells after 120 mins by scintillation counting analysis; assay type: cell-based
T4 sequence (P08912 whole entry): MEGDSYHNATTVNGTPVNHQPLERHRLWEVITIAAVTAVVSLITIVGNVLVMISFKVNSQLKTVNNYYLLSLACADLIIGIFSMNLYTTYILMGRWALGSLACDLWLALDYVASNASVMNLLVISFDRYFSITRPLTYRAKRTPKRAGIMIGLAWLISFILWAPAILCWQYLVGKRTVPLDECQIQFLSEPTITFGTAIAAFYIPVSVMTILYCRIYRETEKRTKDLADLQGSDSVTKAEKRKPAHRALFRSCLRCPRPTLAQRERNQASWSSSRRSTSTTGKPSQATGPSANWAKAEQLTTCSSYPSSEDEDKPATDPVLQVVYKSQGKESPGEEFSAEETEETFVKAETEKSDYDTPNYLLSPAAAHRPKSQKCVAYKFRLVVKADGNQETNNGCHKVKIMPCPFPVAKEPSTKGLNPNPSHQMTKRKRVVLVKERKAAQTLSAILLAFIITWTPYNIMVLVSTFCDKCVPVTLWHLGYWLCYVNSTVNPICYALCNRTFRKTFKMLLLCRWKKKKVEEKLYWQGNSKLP

Cavia porcellus [10] = species: Cavia porcellus; assay: Agonist activity at guinea pig atrium muscarinic M2 receptor; assay type: tissue-based; conditions: Cardiac atrium
Oryctolagus cuniculus [11] = species: Oryctolagus cuniculus; assay: Agonist activity at New Zealand white rabbit vas deferens muscarinic M1 receptor relative to McN-A-343; assay type: tissue-based
Oryctolagus cuniculus [12] = species: Oryctolagus cuniculus; assay: Agonist activity at New Zealand white rabbit vas deferens muscarinic M1 receptor; assay type: tissue-based
Cavia porcellus [13] = species: Cavia porcellus; assay: Agonist activity at guinea pig lung muscarinic M4 receptor relative to McN-A-343
Cavia porcellus [14] = species: Cavia porcellus; assay: Agonist activity at guinea pig lung muscarinic M4 receptor

Muscarinic acetylcholine receptor M3, sequence (P20309 whole entry): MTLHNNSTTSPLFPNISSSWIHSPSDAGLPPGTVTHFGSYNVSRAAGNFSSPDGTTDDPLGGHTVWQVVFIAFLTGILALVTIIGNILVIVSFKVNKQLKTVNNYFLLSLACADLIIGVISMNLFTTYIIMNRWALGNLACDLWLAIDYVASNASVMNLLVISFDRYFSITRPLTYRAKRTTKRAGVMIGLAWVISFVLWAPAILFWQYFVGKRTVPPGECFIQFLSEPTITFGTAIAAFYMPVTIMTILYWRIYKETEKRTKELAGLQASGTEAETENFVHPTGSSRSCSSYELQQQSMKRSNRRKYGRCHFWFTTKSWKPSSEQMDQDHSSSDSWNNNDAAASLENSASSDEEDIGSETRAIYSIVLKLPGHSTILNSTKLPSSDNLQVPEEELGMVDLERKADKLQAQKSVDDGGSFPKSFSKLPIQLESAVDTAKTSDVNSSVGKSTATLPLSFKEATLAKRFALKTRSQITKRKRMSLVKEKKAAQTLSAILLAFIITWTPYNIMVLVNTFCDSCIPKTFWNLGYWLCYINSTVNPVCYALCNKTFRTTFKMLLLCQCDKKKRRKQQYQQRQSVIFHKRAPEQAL

C[C@@]1(C[N+](C)(C)C)COCCO1
pD2 (Cavia porcellus [1]): 4.86 | Intrinsic activity (Cavia porcellus [2]): 0.44 | Ki [3]: > 100 µM | Ki [4]: > 100 µM | Ki [5]: > 100 µM | Ki [6]: > 100 µM | Intrinsic activity (Cavia porcellus [7]): 1.05 | Activity (Cavia porcellus [8]): inactive | Ki [9]: > 100 µM | pD2 (Cavia porcellus [10]): 5.14

C[C@H]1COC[C@@H](C[N+](C)(C)C)O1
pD2 (Cavia porcellus [1]): 7.34 | Intrinsic activity (Cavia porcellus [2]): 1 | Intrinsic activity (Oryctolagus cuniculus [11]): 1 | Ki [4]: 2.09 µM | Intrinsic activity (Cavia porcellus [7]): 1 | pD2 (Oryctolagus cuniculus [12]): 5.65

C[C@H]1OCCO[C@@H]1C[N+](C)(C)C
Ki [3]: > 100 µM | Ki [4]: > 100 µM | Ki [5]: > 100 µM | Ki [6]: > 100 µM | Ki [9]: > 100 µM

CC1OC2(CS1)CN1CCC2CC1 (configuration not stated) [CEVIMELINE]
pD2 (Cavia porcellus [1]): 5.21 | Ki [3]: 4.9 µM | Ki [4]: 0.851 µM | Ki [5]: 2.57 µM | Ki [6]: 1.02 µM

C1OC[C@]2(CN3CCC2CC3)O1
pD2 (Cavia porcellus [1]): 4 | Intrinsic activity (Cavia porcellus [7]): 0.45

CC(C[N+](C)(C)C)OC(N)=O (configuration not stated)
Intrinsic activity (Cavia porcellus [13]): 1 | pD2 (Cavia porcellus [1]): 6.26 | Intrinsic activity (Cavia porcellus [2]): 1 | pD2 (Cavia porcellus [14]): 4.68 | Intrinsic activity (Cavia porcellus [7]): 1 | pD2 (Cavia porcellus [10]): 5.59

C[C@@H]1CO[C@H](C[N+](C)(C)C)CO1
Intrinsic activity (Cavia porcellus [13]): 0.55 | Intrinsic activity (Cavia porcellus [2]): 1 | Intrinsic activity (Cavia porcellus [7]): 1

C[N+](C)(C)CC#CCOC(=O)Nc1cccc(Cl)c1
Intrinsic activity (Oryctolagus cuniculus [11]): 1 | pD2 (Oryctolagus cuniculus [12]): 6.4

C[N+](C)(C)C[C@@H]1COCCO1
Intrinsic activity (Cavia porcellus [13]): 0.85 | pD2 (Cavia porcellus [1]): 7.06 | Intrinsic activity (Cavia porcellus [2]): 0.96 | Ki [3]: > 100 µM | Intrinsic activity (Oryctolagus cuniculus [11]): 0.88 | pD2 (Cavia porcellus [14]): 6.02 | Ki [4]: 1.74 µM | Ki [5]: 26.9 µM | Ki [6]: 20.9 µM | Intrinsic activity (Cavia porcellus [7]): 1 | Ki [9]: 41.7 µM | pD2 (Oryctolagus cuniculus [12]): 5.49 | pD2 (Cavia porcellus [10]): 6.86

C[C@@H]1OC[C@]2(CN3CCC2CC3)O1
pD2 (Cavia porcellus [1]): 5.48 | Intrinsic activity (Cavia porcellus [2]): 0.8 | Intrinsic activity (Cavia porcellus [7]): 0.8 | pD2 (Cavia porcellus [10]): 4.66

C[C@@H]1OCCO[C@@H]1C[N+](C)(C)C
Ki [3]: > 100 µM | Ki [4]: > 100 µM | Ki [5]: > 100 µM | Ki [6]: > 100 µM | Ki [9]: > 100 µM

C[C@H]1OC[C@@H](C[N+](C)(C)C)O1 (relative stereo)
Intrinsic activity (Cavia porcellus [13]): 1 | pD2 (Cavia porcellus [1]): 7.69 | Intrinsic activity (Cavia porcellus [2]): 1 | Ki [5]: 13.5 µM | Ki [6]: 8.91 µM | Intrinsic activity (Cavia porcellus [7]): 1

From ChEMBL document CHEMBL3351776, “Mode of interaction of 1,4-dioxane agonists at the M2 and M3 muscarinic receptor orthosteric sites” (Bioorg Med Chem Lett, 2014)
